Assay results published in PubChem BioAssay AID1919008 (Molecular Pharmacology Branch, DTP, NCI, 2023).

Tested on: DMS-114 complex spheroids with HUVEC/MSC, growth % test/control
Test: Anticancer human tumor DMS-114 cell line growth inhibition [AhR];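 also: spheroids exposed to agents for 7 days before readout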;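 as to viability, T/C: 100% = DMSO vehicle control wells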
Settings: for IC50: curve of first compound; for viability, T/C: stronger effect = lower value; active = viability on the fitted dose curve at most 10% of control; inactive = the rest
Summary of the method: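 Spheroids combined tumor cells with HUVEC endothelial cells and human MSCs as stroma. AhR antagonists were paired with standard or investigational drugs, each dosed in half-log steps down from near clinical Cmax, or from 10 microM where Cmax was unknown.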

[1] = second compound 0.1 µM, first compound 0.000949 µM
[2] = second compound 0.1 µM, first compound 0.003 µM
[3] = second compound 0.1 µM, first compound 0.00949 µM
[4] = second compound 0.1 µM, first compound 0.03 µM
[5] = second compound 0.1 µM, first compound 0.0949 µM
[6] = second compound 0.1 µM, first compound 0.3 µM
[7] = second compound 0.316 µM, first compound 0.000949 µM
[8] = second compound 0.316 µM, first compound 0.003 µM
[9] = second compound 0.316 µM, first compound 0.00949 µM
[10] = second compound 0.316 µM, first compound 0.03 µM
[11] = second compound 0.316 µM, first compound 0.0949 µM
[12] = second compound 0.316 µM, first compound 0.3 µM
[13] = second compound 1 µM, first compound 0.000949 µM
[14] = second compound 1 µM, first compound 0.003 µM
[15] = second compound 1 µM, first compound 0.00949 µM
[16] = second compound 1 µM, first compound 0.03 µM
[17] = second compound 1 µM, first compound 0.0949 µM
[18] = second compound 1 µM, first compound 0.3 µM
[19] = second compound 3.16 µM, first compound 0.000949 µM
[20] = second compound 3.16 µM, first compound 0.003 µM
[21] = second compound 3.16 µM, first compound 0.00949 µM
[22] = second compound 3.16 µM, first compound 0.03 µM
[23] = second compound 3.16 µM, first compound 0.0949 µM
[24] = second compound 3.16 µM, first compound 0.3 µM
[25] = second compound 10 µM, first compound 0.000949 µM
[26] = second compound 10 µM, first compound 0.003 µM
[27] = second compound 10 µM, first compound 0.00949 µM
[28] = second compound 10 µM, first compound 0.03 µM
[29] = second compound 10 µM, first compound 0.0949 µM
[30] = second compound 10 µM, first compound 0.3 µM

CC(C)CC(NC(=O)C(Cc1ccccc1)NC(=O)c1cnccn1)B(O)O (stereo not given) + Cc1cncc(-c2nc(NCCc3c[nH]c4ccccc34)c3ncn(C(C)C)c3n2)c1
active: viability, T/C [3] 2.1% | viability, T/C [4] 0.04% | viability, T/C [5] 0.04% | viability, T/C [6] 0.16% | viability, T/C [9] 1.97% | viability, T/C [10] 0.04% | viability, T/C [11] 0.03% | viability, T/C [12] 0.15% | viability, T/C [15] 1.76% | viability, T/C [16] 0.45% | viability, T/C [17] 0.02% | viability, T/C [18] 0.26% | viability, T/C [21] 0.87% | viability, T/C [22] 0.04% | viability, T/C [23] 0.04% | viability, T/C [24] 0.18% | viability, T/C [27] 0.42% | viability, T/C [28] 0.21% | viability, T/C [29] 0.21% | viability, T/C [30] 0.3%
5.38 nM: IC50 (second compound 1 µM)
4.67 nM: IC50 (second compound 3.16 µM)
< 0.949 nM: IC50 (second compound 10 µM)
5.21 nM: IC50 (second compound 0.316 µM)
5.45 nM: IC50 (second compound 0.1 µM)
inactive: viability, T/C [1] 113% | viability, T/C [2] 102% | viability, T/C [7] 102% | viability, T/C [8] 94.3% | viability, T/C [13] 101% | viability, T/C [14] 99.7% | viability, T/C [19] 93.8% | viability, T/C [20] 80.7% | viability, T/C [25] 37.7% | viability, T/C [26] 28.9%

CCc1c2c(nc3ccc(O)cc13)-c1cc3c(c(=O)n1C2)COC(=O)[C@]3(O)CC + Cc1cncc(-c2nc(NCCc3c[nH]c4ccccc34)c3ncn(C(C)C)c3n2)c1
1.58 nM: IC50 (second compound 3.16 µM)
inactive: viability, T/C [1] 67.4% | viability, T/C [2] 41.6% | viability, T/C [3] 21.9% | viability, T/C [4] 13.8% | viability, T/C [5] 12.6% | viability, T/C [6] 12.5% | viability, T/C [7] 69% | viability, T/C [8] 43.1% | viability, T/C [9] 19.9% | viability, T/C [10] 14.5% | viability, T/C [11] 15.2% | viability, T/C [12] 12.2% | viability, T/C [13] 62.5% | viability, T/C [14] 43.5% | viability, T/C [15] 20.7% | viability, T/C [16] 15.5% | viability, T/C [17] 9.97% | viability, T/C [18] 14.7% | viability, T/C [19] 62.9% | viability, T/C [20] 33.7% | viability, T/C [21] 15% | viability, T/C [22] 13.1% | viability, T/C [23] 13% | viability, T/C [24] 12.4% | viability, T/C [25] 22.1% | viability, T/C [26] 17.4% | viability, T/C [27] 9.92%
2.07 nM: IC50 (second compound 0.1 µM)
active: viability, T/C [28] 8.3% | viability, T/C [29] 9% | viability, T/C [30] 6.26%
2.02 nM: IC50 (second compound 1 µM)
< 0.949 nM: IC50 (second compound 10 µM)
2.21 nM: IC50 (second compound 0.316 µM)

COc1cc(Nc2ncc3c(n2)-c2ccc(Cl)cc2C(c2c(F)cccc2OC)=NC3)ccc1C(=O)O + Cc1cncc(-c2nc(NCCc3c[nH]c4ccccc34)c3ncn(C(C)C)c3n2)c1
inactive: viability, T/C (second compound 0.1 µM, first compound 0.0316 µM) 34.3% | viability, T/C (second compound 0.1 µM, first compound 0.1 µM) 23.1% | viability, T/C (second compound 0.1 µM, first compound 0.316 µM) 44.3% | viability, T/C (second compound 0.1 µM, first compound 1 µM) 53.2% | viability, T/C (second compound 0.1 µM, first compound 3.16 µM) 65.4% | viability, T/C (second compound 0.1 µM, first compound 10 µM) 72.5% | viability, T/C (second compound 0.316 µM, first compound 0.0316 µM) 28.4% | viability, T/C (second compound 0.316 µM, first compound 0.1 µM) 22.3% | viability, T/C (second compound 0.316 µM, first compound 0.316 µM) 40.9% | viability, T/C (second compound 0.316 µM, first compound 1 µM) 62.1% | viability, T/C (second compound 0.316 µM, first compound 3.16 µM) 61.6% | viability, T/C (second compound 0.316 µM, first compound 10 µM) 64.6% | viability, T/C (second compound 1 µM, first compound 0.0316 µM) 30.1% | viability, T/C (second compound 1 µM, first compound 0.1 µM) 21.3% | viability, T/C (second compound 1 µM, first compound 0.316 µM) 41.7% | viability, T/C (second compound 1 µM, first compound 1 µM) 66% | viability, T/C (second compound 1 µM, first compound 3.16 µM) 61.7% | viability, T/C (second compound 1 µM, first compound 10 µM) 70.5% | viability, T/C (second compound 3.16 µM, first compound 0.0316 µM) 24.5% | viability, T/C (second compound 3.16 µM, first compound 0.1 µM) 14.9% | viability, T/C (second compound 3.16 µM, first compound 0.316 µM) 36.3% | viability, T/C (second compound 3.16 µM, first compound 1 µM) 57.2% | viability, T/C (second compound 3.16 µM, first compound 3.16 µM) 69.8% | viability, T/C (second compound 3.16 µM, first compound 10 µM) 63% | viability, T/C (second compound 10 µM, first compound 0.0316 µM) 16.4% | viability, T/C (second compound 10 µM, first compound 0.1 µM) 8.12% | viability, T/C (second compound 10 µM, first compound 0.316 µM) 19% | viability, T/C (second compound 10 µM, first compound 1 µM) 34.3% | viability, T/C (second compound 10 µM, first compound 3.16 µM) 32.4% | viability, T/C (second compound 10 µM, first compound 10 µM) 38.4%
< 31.6 nM: IC50 (second compound 0.1 µM) | IC50 (second compound 0.316 µM) | IC50 (second compound 1 µM) | IC50 (second compound 3.16 µM) | IC50 (second compound 10 µM)
